We go through 7 compounds from patent EP0329223A2, “Acetylenic and triyne cyclic carbonates” (Merck & Co., Inc., priority 1988, dated 1989).

The target in assay [1] is T1, Acetoacetyl-coenzyme A thiolase (Rattus norvegicus, UniProt Q5XI22).
T1 construct: prepared from the livers of Sprague Dawley rats treated in the diet for one week with 0.075% lovastatin to induce the enzyme; from tissue; host or cells: liver of lovastatin-treated Sprague Dawley rats
Put plainly: Acetoacetyl-coenzyme A thiolase inhibition, coupled spectrophotometric assay (NADH oxidation at 340 nm). Format: biochemical, Sprague Dawley rats. The method, then: Acetoacetyl-coenzyme A thiolase was prepared from the livers of Sprague Dawley rats treated in the diet for one week with 0.075% lovastatin to induce the enzyme. […] The 0.06 M eluate described by Mehrabian et al. contained the acetoacetyl-coenzyme A thiolase. The isolate was concentrated by ammonium sulfate precipitation, dissolved in the buffer used for elution, and stored at -70°C.
Reaction was measured at room temperature for a time period necessary to produce a measurable reaction rate. An IC₅₀, the concentration that inhibits 50% of the acetoacetyl-coenzyme A thiolase activity, was determined for each test compound. […]

For another assay, the system named is Candida albicans MY 1055. The assay is described as follows: Antifungal assay, minimum inhibitory concentration. Format: cell-based. The settings on record: lowest concentration that inhibits visible growth, Yeast Nitrogen Base/0.5% glucose, 37°C for 18 hours, starting inoculum 3-5 x 10⁻⁴ CFU/ml. Here is the method: Antifungal activity was determined against Candida albicans MY 1055, a yeast strain maintained by Merck and Co; Rahway, New Jersey. Minimum inhibitory concentrations were determined using a starting inoculum of […]. The medium was Yeast Nitrogen Base/0.5% glucose. Test compounds were dissolved in a minimum amount of 50% aqueous ethanol and diluted to final concentrations with yeast medium. Samples were incubated at 37°C for 18 hours. The minimum inhibitory concentration (MIC), reported in µg/ml, is the lowest concentration of test compound that inhibits visible growth.

The mark [2] stands for this setting: enzyme from rat liver (lovastatin-induced), pH 7.5, room temperature, 2.85 mM acetoacetyl-coenzyme A, read-out: IC₅₀.

pIC50: −log10 of the molar value. ≈ marks a conversion by molar mass, not a printed value. Where two headings read alike, the source gives them in different places.

T1 sequence (Q5XI22 whole entry): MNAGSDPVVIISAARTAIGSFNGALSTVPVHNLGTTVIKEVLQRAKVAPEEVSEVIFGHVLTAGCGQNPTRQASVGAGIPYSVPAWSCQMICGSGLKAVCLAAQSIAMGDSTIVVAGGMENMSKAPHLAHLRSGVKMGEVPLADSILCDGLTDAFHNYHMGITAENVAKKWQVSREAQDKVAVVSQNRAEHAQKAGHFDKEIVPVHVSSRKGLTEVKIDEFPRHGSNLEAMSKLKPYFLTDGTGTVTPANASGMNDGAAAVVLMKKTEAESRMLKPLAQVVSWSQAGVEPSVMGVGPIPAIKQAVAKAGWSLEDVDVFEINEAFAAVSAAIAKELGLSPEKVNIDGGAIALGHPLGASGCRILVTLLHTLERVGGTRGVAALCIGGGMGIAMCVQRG

In assay [1], `COC(=O)CCCCCC[C@@H]1OC(=O)O[C@H]1C(O)C#CC#CC#C[Si](C)(C)C` (single isomer, unassigned) [Ex. 5] gave a pIC50 of 7.21. For the same compound, in the assay with Candida albicans MY 1055 (read-out: MIC), the MIC was 0.078 µg/mL (≈ 0.193 µM). `C#CC#CC#C[C@@H](OC(C)=O)[C@@H]1OC(=O)O[C@H]1CCCCCCC(=O)OC` [Ex. 18, 5-(1(R)-(Acetyloxy)-2,4,6-heptatriynyl)-2-oxo-4(S),5(S)-1,3-dioxolane-4-heptanoic acid, methyl ester]: the pIC50 in assay [1] (setting [2]) was 6.82.

In the case of `C#CC#CC#C[C@@H](O)[C@@H]1OC(=O)O[C@H]1CCCCCCC(=O)OC` [Ex. 17, 5-(1(R)-Hydroxy-2,4,6-heptatriynyl)-2-oxo-4(S),5(S)-1,3-dioxolane-4-heptanoic acid, methyl ester], in assay [1] (setting [2]), the pIC50 was 7.62. Turning to `COC(=O)CCCCCC[C@@H]1OC(=O)O[C@H]1C(O)C#CC#CC#C[Si](C)(C)C` (single isomer, unassigned) [Ex. 6], in assay [1], the pIC50 was 6.00. Besides, in the assay on Candida albicans MY 1055 (read-out: MIC), the MIC was 0.6 µg/mL (≈ 1.48 µM). `C#CC#CC#C[C@@H](OC(C)=O)[C@@H]1OC(=O)O[C@H]1CCCCCCC(=O)O` [Ex. 19, 5-(1(R)-(Acetyloxy)-2,4,6-heptatriynyl)-2-oxo-4(S),5(S)-1,3-dioxolane-4-heptanoic acid]: the pIC50 in assay [1] (setting [2]) is 8.05. On the same count and under the same terms, under `C#CC#CC#C[C@@H](OC)[C@@H]1OC(=O)O[C@H]1CCCCCCC(=O)OC` [Ex. 20, 5-(1(R)-Methoxy-2,4,6-heptatriynyl)-2-oxo-4(S),5(S)-1,3-dioxolane-4 heptanoic acid, methyl ester] stands 7.34.

With “5-(1(R)-Methoxy-2,4,6-octatriynyl)-2-oxo-4(S),5(S)-1,3 dioxolane-4-heptanoic acid, methyl ester [Ex. 13]”, the pIC50 in assay [1] (setting [2]) is 6.25. In addition, the MIC with Candida albicans MY 1055 came to 5 µg/mL.
